Assay in all cases: inhibition of tumour cell growth, NCI panel, 48 h
In assay [1] the test system is HCT-116 colon.
Assay [2] relates to HOP-18 NSCLC.
Assay [3] has as its system SK-MEL-2 melanoma.
The test system of assay [4] is SK-MEL-5 melanoma.
Assay [5] has as its system SR leukemia.
Assay [6] deals with UACC-62 melanoma.
Assay [7] relates to UO-31 renal.
Assay [8] has as its system CAKI-1 renal.
The subject of assay [9] is MDA-N.
Assay [10] concerns SN12C renal.

Where “and” joins values, the source holds several entries; their conditions need not be identical. Equal entries are not always repeated.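 Interpolation was linear, between the two tested concentrations surrounding the appropriate level; five concentrations were tested over 48 hours in 96-well plates. GI50 = concentration required for 50% inhibition of growth. TGI: concentration producing complete growth inhibition.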

In PubChem BioAssay (NCI) one finds TGI and GI50 data, which are given here for 30 compounds.

For the compound `O=C(CSc1nnc(-c2ccc(N=Cc3ccc(Cl)cc3)cc2)o1)Nc1ccccc1Cl`, the TGI in assay [1], in assay [2], in [3], in [4], in assay [5] and in [6] was greater than 100 µM each time. In [7], this compound had a TGI greater than 100 µM.

On to `CN(C)c1nc2sc3c(c2c(=O)o1)CCCC3`, for which the TGI is greater than 100 µM in assay [8]; greater than 100 µM in assay [1]; greater than 100 µM in [9]; 99.4 µM in [3]; greater than 100 µM in assay [4]; greater than 100 µM in assay [10]. Also, the TGI in assay [5], in [6] and in assay [7] was greater than 100 µM in each case.

Consider `CC1=NN(C(=O)CSc2nnc(SCC(=O)N3N=C(C)CC3(O)c3ccccc3)s2)C(O)(c2ccccc2)C1` (stereo not drawn), for which the TGI in assay [8], in assay [1], in assay [9], in assay [3], in [4] and in [10] was greater than 100 µM in each case. Further, the TGI in [5] was greater than 100 µM; in assay [6], 56.3 µM; in assay [7] it was greater than 100 µM.

Regarding `CCOC(=O)c1ccc(N=NN(C)C(=O)C(C)N)cc1` (stereo not drawn), the TGI in assay [8], in [1], in assay [9], in assay [3], in assay [4] and in assay [10] was greater than 100 µM in each case. Besides, the TGI in assay [5], in assay [6] and in [7] was greater than 100 µM each time.

For the compound `C/C=C/[C@@]1(OC(=O)c2ccccc2)C[C@@H]2CCCC[C@@H]21`, the TGI amounted to 31.4 µM in assay [8]; 29.4 µM in assay [1]; 33.4 µM in [9]; 30.3 µM in [3]; 29.3 µM in assay [4]; 36.7 µM in [10]. For the same compound, the TGI in [5] worked out at 37.9 µM; in [6], 32.9 µM; in assay [7], 22.9 µM.

`CCCC(=O)O`: the TGI was 12000 µM in assay [8]; greater than 18700 µM in assay [1]; greater than 18700 µM in assay [9]; greater than 18700 µM in assay [3]; 6100 µM in [4]; greater than 18700 µM in assay [10]. Moreover, the TGI in assay [5] was 5340 µM; in [6] it was 4930 µM; in assay [7], 10200 µM. Further, the GI50 in assay [4] was 2410 µM.

With `C=CCC1(O)c2ccccc2C(=O)c2c(O)ccc(O)c21` (stereo not drawn), the TGI in [8] was determined as 50.7 µM; in assay [1], 27.3 µM; in [9], 5.15 µM; in [3], 9.98 µM; in [4], 23.1 µM; in assay [10], 56.4 µM. Further, the TGI in assay [5] is greater than 69.8 µM; in assay [6], 20.3 µM; in assay [7], 52.6 µM.

Turning to `CCC1(O)CC(OC2CC(N(C)C)C(OC3CC4OC5CC(=O)C(C)OC5OC4C(C)O3)C(C)O2)c2c(cc3c(c2O)C(=O)c2c(O)ccc(O)c2C3=O)C1C(=O)OC` (stereo not drawn), the GI50 in assay [8] is 0.00251 µM and 0.00763 µM; in assay [2], 0.00875 µM and 0.0163 µM; in assay [3], 0.00919 µM and 0.00439 µM and 0.00879 µM; in assay [6] it was 0.00479 µM and 0.00857 µM. For the same compound, the TGI is 0.0238 µM and 0.126 µM and 0.0875 µM in assay [1]; 0.0821 µM and 0.0764 µM in assay [2]; 0.0309 µM and 0.0149 µM and 0.0148 µM in assay [3]; 0.0164 µM and 0.0136 µM in assay [6].

Consider `O=C1C2CCCCC2C(=O)N1n1c(Cc2ccc(Cl)cc2)n[nH]c1=O` (stereo not drawn), for which the TGI in assay [8], in [1], in assay [9], in [3], in assay [4] and in [10] was greater than 100 µM in each case. For the same compound, the TGI in assay [5], in [6] and in [7] was greater than 100 µM in each case.

On to `O=C1c2c(F)c(F)c(F)c(F)c2SC2=NCCN12`, for which the TGI came to 6.67 µM in assay [8]; 5.24 µM in assay [1]; 11.9 µM in assay [9]; 6.52 µM in assay [3]; 28.4 µM in [4]; 21.8 µM in assay [10]. The TGI in assay [5] amounted to 4.45 µM; in [6] it was 19.2 µM; in assay [7], 22.5 µM.

In the case of `O=C1Oc2ccccc2C(=O)/C1=C/N1C(=O)N/C(=C\c2ccccc2O)C1=O`, the TGI in assay [8], in assay [1], in [9], in assay [3], in assay [4] and in assay [10] was greater than 100 µM in each case. The TGI in assay [5], in assay [6] and in [7] was greater than 100 µM throughout.

For `O=C1c2ccccc2C2CNC1(O)c1ccccc12` (stereo not drawn), the TGI in assay [8], in assay [1], in assay [9], in [3], in assay [4] and in assay [10] was greater than 100 µM throughout. Further, the TGI in [5], in assay [6] and in [7] was greater than 100 µM throughout.

As to `CC(C)(C)OC(=O)CN1CCNCCNCC1`, the TGI in assay [8], in [1], in assay [9], in assay [3], in assay [4] and in assay [10] was greater than 100 µM in each case. Further, the TGI in assay [5], in assay [6] and in [7] was greater than 100 µM in each case.

Turning to `Nc1nc2c(=O)c3ccccc3sc2s1`, the TGI in assay [8] was 91.6 µM; in assay [1] it was greater than 100 µM; in assay [9] it was greater than 100 µM; in assay [3], greater than 100 µM; in [4], greater than 100 µM; in assay [10], greater than 100 µM. Further, the TGI in [5] is greater than 100 µM; in assay [6], 84 µM; in assay [7] it was greater than 100 µM.

`COc1cc(/C=C2/SC(c3ccccc3)N(c3ccc(NC(C)=O)cc3)C2=O)cc(OC)c1OC` (stereo not drawn): the TGI in assay [8], in [1], in assay [9], in assay [3], in assay [4] and in [10] was greater than 100 µM throughout. The TGI in assay [5], in assay [6] and in assay [7] was greater than 100 µM each time.

For `CC12CC3C(CC1SCC(=O)O2)C3(C)C` (stereo not drawn), the TGI in assay [1], in assay [2], in assay [3], in assay [4], in assay [10] and in assay [7] was greater than 100 µM throughout.

Turning to `O=c1[nH]c(=O)n(C2CC(O)C(CO)O2)cc1I` (stereo not drawn), the TGI in assay [8], in assay [1], in assay [9], in [3], in [4] and in assay [10] was greater than 100 µM in each case. The TGI in assay [5], in [6] and in assay [7] was greater than 100 µM throughout.

Take `O=c1cc(CNC2CCCC2)[nH]c(=O)[nH]1`: the TGI in [8], in assay [1], in assay [9], in assay [3], in assay [4] and in assay [10] was greater than 100 µM each time. In addition, the TGI in [5], in assay [6] and in [7] was greater than 100 µM each time.

For the compound `C=C(C)[C@@H]1CC[C@]2(C(=O)O)CC[C@]3(C)[C@H](CC[C@@H]4[C@@]5(C)CC(=O)C(C)(C)[C@@H]5CC[C@]43C)[C@@H]12`, the TGI in assay [8] is greater than 25 µM; in [1], 8.83 µM; in [9], greater than 25 µM; in assay [3], 9.71 µM; in assay [4], 13.3 µM; in [10], 13.6 µM. Further, the TGI in [5] is 12.3 µM; in assay [6], 6.66 µM; in [7], 16.4 µM.

Turning to `C=C(C)C(=O)CC[C@@H](C)[C@H]1[C@@H](OC2OC(CO)C(O)C(O)C2O)C[C@@]2(C)[C@@H]3C[C@H](O)C4C(C)(C)[C@@H](OC5OC(CO)C(O)C(O)C5O)CC[C@@]45C[C@@]35CC[C@]12C` (stereo partly drawn), the TGI is greater than 100 µM in assay [8]; greater than 100 µM in [1]; 55.6 µM in assay [9]; greater than 100 µM in assay [3]; greater than 100 µM in assay [4]; greater than 100 µM in assay [10]. In addition, the TGI in assay [5], in [6] and in [7] was greater than 100 µM in each case.

With `O=C(Cn1c(=O)oc2ccc(C(=O)c3ccc(F)cc3)cc21)c1ccc([N+](=O)[O-])cc1`, the TGI was greater than 100 µM in assay [8]; greater than 100 µM in [1]; 60.9 µM in assay [9]; 86.2 µM in assay [3]; 34 µM in assay [4]; greater than 100 µM in assay [10]. The TGI in assay [5] is greater than 100 µM; in assay [6], greater than 100 µM; in assay [7] it was 84.4 µM.

As for `C[N+]1(C)CCCC1C(=O)[O-]` (stereo not drawn), the TGI in [1], in assay [2], in assay [3], in assay [10], in assay [5] and in [6] was greater than 100 µM throughout. In assay [7], this compound gave a TGI greater than 100 µM.

As for `CC[n+]1cnc(N)c2c(-c3ccc(Cl)cc3)cn(-c3ccc(C)cc3)c21`, the TGI in assay [8] came to 30.6 µM; in [1] it was 21.3 µM; in [9], 25 µM; in assay [3], 36 µM; in assay [4], 22 µM; in [10], 25.2 µM. The TGI was determined as 19.1 µM in assay [5], 24.3 µM in assay [6] and 21.5 µM in [7].

Consider `O=C1CSC2(CC(/C=C/c3ccccc3)=NN2c2cccc(S(=O)(=O)O)c2)N1c1nc2ccccc2s1` (stereo not drawn), for which the TGI is greater than 100 µM in assay [8]; greater than 100 µM in assay [1]; greater than 100 µM in assay [9]; 49.5 µM in assay [3]; greater than 100 µM in assay [4]; 71.2 µM in assay [10]. Further, the TGI in assay [5] turned out to be 61 µM; in assay [6], 45.2 µM; in assay [7], 35.7 µM.

Consider `CN1C/C(=C\c2cccs2)C2=NC(=S)NC(c3cccs3)C2C1` (stereo not drawn), for which the TGI in assay [8], in [1], in [9], in [3], in [4] and in [10] was greater than 100 µM throughout. In addition, the TGI in [5] was 54.2 µM; in assay [6] it was greater than 100 µM; in assay [7], greater than 100 µM.

Turning to `O=C(O)c1ccccc1.[Ag]`, the TGI in assay [8] was 9.89 µM; in assay [1], 46.3 µM; in [9] it was 19.2 µM; in assay [3], 30.2 µM; in assay [4] it was 19.5 µM; in assay [10], 51 µM. The TGI in assay [5] is greater than 100 µM; in assay [6], 32.3 µM; in [7], 7.17 µM.

Take `Clc1ccc(-c2ccc(-c3nnc(CCc4nnc(-c5ccc(-c6ccc(Cl)cc6)o5)o4)o3)o2)cc1`: the TGI in assay [8], in [1], in assay [9], in assay [3], in assay [4] and in assay [10] was greater than 100 µM throughout. In addition, the TGI in assay [5] was 5.5 µM; in assay [6], greater than 100 µM; in [7], greater than 100 µM.

Turning to `Cc1ccc(C2CC(=O)CC(c3ccc(C)cc3)C23C(=O)NC(=O)NC3=O)cc1` (stereo not drawn), the TGI in assay [8], in [1], in assay [9], in assay [3], in assay [4] and in assay [10] was greater than 100 µM throughout. The TGI in [5], in assay [6] and in [7] was greater than 100 µM throughout.

For `C1=C\SS/C=C\SS/C=C\SS/C=C\SS/1`, the TGI in [8], in [1], in assay [9], in assay [3], in [4] and in [10] was greater than 100 µM each time. The TGI in assay [5], in assay [6] and in [7] was greater than 100 µM in each case.

For the compound `CCOC(=O)c1cccc(NC(=O)CCl)c1`, the TGI in assay [8] was determined as 3.42 µM; in assay [1], 8.29 µM; in [9] it was 14.7 µM; in [3] it was 8.57 µM; in assay [4] it was 3.69 µM; in [10] it was 4.6 µM. Moreover, the results for the TGI in [5], in assay [6] and in assay [7] were 7.46 µM, 6.85 µM and 13.7 µM, respectively.
